# Where “and” joins values, the source holds several entries; their conditions need not be identical. Identical values can stand only once. Like-named read-outs stand apart in the source and are kept apart here.
# Experiments:
# SARS-CoV-2 3CL protease [1] = target: T1, SARS-CoV-2 3CL protease (Severe acute respiratory syndrome coronavirus 2, UniProt P0DTD1); experiment: biochemical; conditions: for IC50 / % SARS-CoV-2 3CL activity: 20 nM protease; for IC50: read-out: SARS-CoV-2 3CLpro IC50; for % SARS-CoV-2 3CL activity / Normalized SARS-CoV-2 3CL protease activity: replicates; for Normalized SARS-CoV-2 3CL protease activity: 0.2 µM protease with 50 µM tested compound
# SARS-CoV-2 3CL protease [2] = target: T1, SARS-CoV-2 3CL protease; experiment: biochemical; conditions: for kinact/KI: read-out: SARS-CoV-2 3CLpro kinact/KI
# SARS-CoV-2 3CL protease [3] = target: T1, SARS-CoV-2 3CL protease; type: binding
# SARS-CoV-2 [4] = experiment: microbe, parasite or virus in culture; type: cell-based; conditions: Severe acute respiratory syndrome coronavirus 2, Vero C1008, read-out: SARS-CoV-2 Vero E6 EC50
# SARS-CoV-2 [5] = experiment: microbe, parasite or virus in culture; type: cell-based; conditions: for EC50: Severe acute respiratory syndrome coronavirus 2, 24 h, read-out: SARS-CoV-2 Huh-7ACE2 EC50
# [6] = tested on: Influenza A H1N1 (strain: California/07/2009); experiment: microbe, parasite or virus in culture; type: cell-based; conditions: Influenza A virus, H1N1, MDCK, read-out: Influenza A (H1N1) MDCK EC50
# SARS-CoV-2 3CL protease [7] = target: T1, SARS-CoV-2 3CL protease; experiment: cell-based
# [8] = Concentration of inhibitor (nM) 0.19382
# [9] = Concentration of inhibitor (nM) 0.49485
# [10] = Concentration of inhibitor (nM) 0.79588
# [11] = Concentration of inhibitor (nM) 1.09691
# [12] = Concentration of inhibitor (nM) 1.39794
# [13] = Concentration of inhibitor (nM) 1.69897
# [14] = Concentration of inhibitor (nM) 2
# [15] = Concentration of inhibitor (nM) 2.30103
# [16] = Concentration of inhibitor (nM) -0.10721
# [17] = Concentration of inhibitor (nM) -0.40824
Compound,IC50 (SARS-CoV-2 3CL protease [1]) [nM],"normalized activity, dose-response curve (Figure S16) (SARS-CoV-2 3CL protease [1]; [8])","normalized activity, dose-response curve (Figure S16) (SARS-CoV-2 3CL protease [1]; [9])","normalized activity, dose-response curve (Figure S16) (SARS-CoV-2 3CL protease [1]; [10])","normalized activity, dose-response curve (Figure S16) (SARS-CoV-2 3CL protease [1]; [11])","normalized activity, dose-response curve (Figure S16) (SARS-CoV-2 3CL protease [1]; [12])","normalized activity, dose-response curve (Figure S16) (SARS-CoV-2 3CL protease [1]; [13])","normalized activity, dose-response curve (Figure S16) (SARS-CoV-2 3CL protease [1]; [15])","normalized activity, dose-response curve (Figure S16) (SARS-CoV-2 3CL protease [1]; [16])","normalized activity, dose-response curve (Figure S16) (SARS-CoV-2 3CL protease [1]; [17])","observed inactivation rate vs compound concentration (Figure S19, replicate values) (SARS-CoV-2 3CL protease [2])",kinact/KI (SARS-CoV-2 3CL protease [2]) [M⁻¹ s⁻¹],Normalized SARS-CoV-2 3CL protease activity (SARS-CoV-2 3CL protease [1]),"Absorbance (crystal violet), SARS-CoV-2 3CLpro (SARS-CoV-2 3CL protease [7])",other results
O=C(N[C@@H](CC1CCCCC1)C(=O)N[C@@H](C[C@@H]1CCNC1=O)C(O)S(=O)(=O)O)OCc1cccc(Cl)c1 (stereo partly drawn) [EB48],200,110.351 and 97.4198,103.827 and 92.511,102.384 and 88.7351,98.7453 and 87.9169,87.2647 and 81.1831,80.9285 and 77.1554,58.4065 and 46.4443,108.281 and 111.58,100,0.0858 and 0.04 and 0.095 and 0.0226 and 0.0022 and 0.0296 and 0.1194 and 0.0166 and 0.0446 and 0.0488 and 0.0144 and 0.0572 and 0.0269 and -0.02233 and 0.0225 and 0.0208 and 0.0151 and 0.0309,35000,–,–,"normalized activity, dose-response curve (Figure S16) (SARS-CoV-2 3CL protease [1]; [14]): 69.8871 and 61.2964; normalized activity, dose-response curve (Figure S16) (SARS-CoV-2 3CL protease [1]; Concentration of inhibitor (nM) 2.60206): 43.601 and 36.7527; binding to 3CL protease by mass spectrometry (in words) (SARS-CoV-2 3CL protease [3]): blocked the covalent binding of 10 equivalents of compound 4; EC50 (SARS-CoV-2 [4]): 16000 nM"
CC(C)C[C@H](NC(=O)OCc1cccc2ccccc12)C(=O)N[C@@H](C[C@@H]1CCNC1=O)C(O)S(=O)(=O)O (stereo partly drawn) [EB55],72,97.6947 and 91.9164,90.7787 and 89.6887,89.0003 and 83.5464,84.4555 and 78.5499,77.2102 and 70.0207,64.1027 and 59.773,16.7117 and 14.6768,100.329 and 102.132,100,0.0457 and 0.0269 and 0.0571 and -0.0002 and 0.0258 and 0.0554 and 0.0425 and 0.0417 and 0.0134 and 0.0205 and 0.022 and 0.0066,21700,–,–,"normalized activity, dose-response curve (Figure S16) (SARS-CoV-2 3CL protease [1]; [14]): 47.4055 and 42.8102; EC50 (SARS-CoV-2 [4]): 3000 nM; inhibition of SARS-CoV-2 (Figure s17b dose-response, replicate values) (SARS-CoV-2 [5]): 100.856 and 96.5428 and 101.322 and 91.4468 and 90.1295 and 92.8292 and 65.5151 and 69.1898 and 72.8142 and 38.0936 and 42.5735 and 35.1981 and 28.1354 and 24.4902 and 21.8952 and 10.9114 and 19.9799 and 11.8441 and 9.792 and 14.2234 and 10.7567; EC50 (SARS-CoV-2 [5]): 11 nM"
O=C(N[C@@H](CC1CC1)C(=O)N[C@@H](C[C@@H]1CCNC1=O)C(O)S(=O)(=O)O)OCc1ccccc1Cl (stereo partly drawn) [NK01-69],24,88.5666 and 86.5188,72.8669 and 79.1809,75 and 74.3174,65.1024 and 60.8362,47.5256 and 39.3345,32.1672 and 24.5734,4.608 and 4.693,106.997 and 100.683,89.5904 and 100,0.0682 and 0.0478 and 0.0347 and 0.0227 and 0.0119 and 0.047 and -0.00793 and 0.0043 and 0.0066 and 0.0454 and 0.0603 and 0.0339 and 0.0459 and 0.0266 and 0.0345 and 0.0301 and 0.0444 and 0.0675,70000,–,–,"inhibition of SARS-CoV-2 (Figure s17b dose-response, replicate values) (SARS-CoV-2 [5]): 112.139 and 77.9057 and 91.5513 and 79.8842 and 49.1022 and 70.5924 and 62.1924 and 62.9155 and 78.4113 and -0.7628 and 38.0643 and 11.5151 and -8.426 and 17.4096 and 4.8166 and -9.308 and 10.7894 and 11.3275 and 55.1502 and 29.5769 and 12.5491; EC50 (SARS-CoV-2 [5]): 35 nM"
"NC(=O)c1ncn([C@@H]2O[C@H](CO)[C@@H](O)[C@H]2O)n1 [Ribavirin, reference compound]",–,–,–,–,–,–,–,–,–,–,–,–,–,–,EC50 [6]: 3200 nM
O=C(Oc1cncc(Cl)c1)c1ccco1 [T71],11,–,–,–,–,–,–,–,–,–,–,–,0.04328 and 0.01902 and 0.03148,0.16 and 0.1636,% SARS-CoV-2 3CL activity (SARS-CoV-2 3CL protease [1]; log10[nM] 0.19382): 86.3659% and 89.8434%; % SARS-CoV-2 3CL activity (SARS-CoV-2 3CL protease [1]; log10[nM] 0.49485): 80.2845% and 76.3012%; % SARS-CoV-2 3CL activity (SARS-CoV-2 3CL protease [1]; log10[nM] 0.79588): 65.6694% and 65.2855%; % SARS-CoV-2 3CL activity (SARS-CoV-2 3CL protease [1]; log10[nM] 1.09691): 47.7195% and 48.4083%; % SARS-CoV-2 3CL activity (SARS-CoV-2 3CL protease [1]; log10[nM] 1.39794): 16.1844% and 18.9995%; % SARS-CoV-2 3CL activity (SARS-CoV-2 3CL protease [1]; log10[nM] 1.69897): 0.4414% and 4.144%; % SARS-CoV-2 3CL activity (SARS-CoV-2 3CL protease [1]; log10[nM] 2): -3.629% and 1.061%; % SARS-CoV-2 3CL activity (SARS-CoV-2 3CL protease [1]; log10[nM] 2.30103): -2.6974% and 0.4042%; % SARS-CoV-2 3CL activity (SARS-CoV-2 3CL protease [1]; log10[nM] 2.60206): -1.9127% and -0.758%; % SARS-CoV-2 3CL activity (SARS-CoV-2 3CL protease [1]; log10[nM] 2.90309): 0%; % SARS-CoV-2 3CL activity (SARS-CoV-2 3CL protease [1]; log10[nM] -0.10721): 95.0956% and 96.5639%; % SARS-CoV-2 3CL activity (SARS-CoV-2 3CL protease [1]; log10[nM] -0.40824): 100%
O=C(/C=C/c1ccc(F)cc1)Oc1cc(Cl)c[nH]c1=O [Z14],–,–,–,–,–,–,–,–,–,–,–,–,1.002 and 0.9823 and 0.9751,0.1689 and 0.1739,–
CC(=O)N1CCc2cc(C(=O)Oc3cncc(Cl)c3)ccc21 [Z21],–,–,–,–,–,–,–,–,–,–,–,–,0.2321 and 0.2984,0.1721 and 0.1614,–
